This note sets out measurements from patent publication US10202346B2, “Phenol derivatives and the pharmaceutical or cosmetic use thereof” (Galderma Research & Development, priority 2009, dated 2019).

For series [1], the target named is T1, receptors of AR type (Homo sapiens, UniProt P10275).
T1 construct: expressed in transfected cells; host or cells: PALM cells (PC3 stably transfected with PMMTV-neo-Luc and pSG5puro-AR)
T1 sequence (P10275 1-920): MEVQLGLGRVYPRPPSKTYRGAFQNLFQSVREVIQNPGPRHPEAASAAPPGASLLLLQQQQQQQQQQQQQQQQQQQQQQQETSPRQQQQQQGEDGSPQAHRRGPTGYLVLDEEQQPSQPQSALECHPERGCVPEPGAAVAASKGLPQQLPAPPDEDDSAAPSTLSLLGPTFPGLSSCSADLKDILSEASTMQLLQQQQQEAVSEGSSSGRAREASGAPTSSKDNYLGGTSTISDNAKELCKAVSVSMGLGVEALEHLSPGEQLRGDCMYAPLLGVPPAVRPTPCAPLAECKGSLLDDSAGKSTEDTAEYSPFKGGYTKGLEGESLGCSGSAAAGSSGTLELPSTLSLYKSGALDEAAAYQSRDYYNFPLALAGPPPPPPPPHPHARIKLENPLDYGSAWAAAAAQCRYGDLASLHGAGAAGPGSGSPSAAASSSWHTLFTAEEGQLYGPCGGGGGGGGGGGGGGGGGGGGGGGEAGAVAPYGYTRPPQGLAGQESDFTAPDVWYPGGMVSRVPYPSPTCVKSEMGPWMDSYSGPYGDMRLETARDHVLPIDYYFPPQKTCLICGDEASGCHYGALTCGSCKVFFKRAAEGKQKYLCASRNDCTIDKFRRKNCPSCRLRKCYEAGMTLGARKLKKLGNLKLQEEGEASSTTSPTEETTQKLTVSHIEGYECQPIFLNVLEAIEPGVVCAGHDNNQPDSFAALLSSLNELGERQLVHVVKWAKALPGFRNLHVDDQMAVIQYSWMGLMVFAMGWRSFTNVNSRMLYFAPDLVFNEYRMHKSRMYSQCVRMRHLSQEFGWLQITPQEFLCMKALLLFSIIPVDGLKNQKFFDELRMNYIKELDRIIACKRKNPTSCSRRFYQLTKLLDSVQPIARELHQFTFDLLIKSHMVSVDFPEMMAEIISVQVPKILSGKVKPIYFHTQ
In words: AR transactivation test in PALM (PC3 Androgen receptor Luciferase MMTV) cell line. The class given is cell-based. As to conditions: cross curves against reference agonist methyltrienolone, read-out: Kdapp (apparent dissociation constant). On the procedure:
The compounds according to the invention show inhibitory properties on receptors of AR type. This AR receptor-inhibiting activity is measured in a transactivation test through the KdR (resting), KdA (active) and Kdapp (apparent) dissociation constants according to the method set out in J. Molecular Biology (1965), 12(1), 88-118, Monod J. of et al.
The transactivation test is carried out in the PALM (PC3 Androgen receptor Luciferase MMTV) cell line which is a stable transfectant containing the PMMTV-neo-Luc (reporter gene) and pSG5puro-AR plasmids.
In this study, the affinity of each product for the 2 receptor states (KdR and KdA) is determined, as is an apparent Kd (KdApp). This constant is a result of the 2 Kd, but also depends on the initial equilibrium of the receptor between the active state and the resting state (L0) and on its expression level. It is determined by means of the following formula: 1/KdApp=(L0/(1+L0))×(1/KdR)+(1/(1+L0))×(1/KdA)
To determine these constants, “cross curves” of the test product against a reference agonist, methyltrienolone, are produced in 96-well plates. The test product is used at 10 concentrations and the reference agonist at 7 concentrations, […]

Turning to `COc1cc(NCc2ccccc2O)ccn1` [Example 5, 2-[(2-Methoxypyridin-4-ylamino)methyl]phenol], in series [1], the Kd stood at 0.05 µM. `Oc1ccc(F)cc1CNc1ccnc(Br)c1` [Example 4, 2-[(2-Bromopyridin-4-ylamino)methyl]-4-fluorophenol]: the Kd in series [1] was 0.02 µM. As for `COc1cc(NCc2ccccc2O)cc(Br)n1` [Example 1, 2-[(2-Bromo-6-methoxypyridin-4-ylamino)methyl]phenol], the melting point (usually the temperature of the solid-liquid transition) worked out at 137 °C. Further, in series [1], the Kd is 0.02 µM. For `Oc1ccccc1CNc1ccnc(Cl)c1` [Example 2, 2-[(2-Chloropyridin-4-ylamino)methyl]phenol], the Kd in series [1] came to 0.004 µM.
